Legend:
Format in all cases: cell-based
[1] = test system: human melanoma SKMEL28 cells; assay: MTS cell viability assay, SKMEL28; conditions: Homo sapiens; for IC50: SK-MEL-28, 72 h; for IC90: SK-MEL-28, Table 2
Summary of the method: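 SKMEL28 melanoma cells in DMEM with 10% heat-inactivated FBS were seeded at 1-2×10^4 cells/mL and exposed to withanolides for 72 h. Viability was measured by MTS reagent, incubated 3 h at 37 °C, with formazan absorbance read at 490 nm.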

SUP-B15 Ph+ ALL cells = assay: MTS assay, SUP-B15; conditions: for IC50: Homo sapiens, SUP-B15
Experimental: (§1) Cell proliferation was analyzed using MTS assay and Trypan Blue exclusion. Annexin V-FITC/Propidium Iodide flow cytometry was used to analyze the induction of apoptosis in SUP-B15 cells after treatment with anolides. Cell cycle analysis was performed using propidium iodide flow cytometry. Modulation of BCR-ABL and downstream effector proteins was determined by western blot analysis. Syngery between withanolides and TKIs was evaluated using MTS viability to calculate combination indices. Apoptotic synergy was evaluated using Annexin V/PI.

[2] = test system: DRO81-1 medullary thyroid cancer cells; assay: MTS cell viability assay, DRO81-1; conditions: Table 1; DRO81-1; 72-hour treatment; read-out: IC50
Experimental: (§2) Human carcinoid cells, NCI-H727 (ATCC, Manassas, Va.), were cultured under standard conditions. Squamous cell carcinoma of head and neck cells, MDA1986 (Myers, et al. (2002) Clin. Cancer Res. 8:293) and JMAR (Swan, et al. (2003) Oral Oncol. 39:648-55); and melanoma cells lines B16F10 (ATCC, Manassas, Va.) and SKMEL28 (CLS, Eppelheim, Germany) were cultured in DMEM medium supplemented with 10% heat-inactivated fetal bovine serum (Sigma-Aldrich, St. Louis, Mo.), 1×MEM-essential amino acid, 1×MEM vitamin, and penicillin/streptomycin (Sigma-Aldrich, St. Louis, Mo.) in a humid environment of 5% CO2 at 37° C. Activity of withanolides against DRO81-1 and TT medullary thyroid cancer cells was also determined.
(§3) Cells were cultured in 96 well plates at a concentration of 1-2×10^4 cells/mL. Cell viability was assessed with the nonradioactive cell proliferation MTS assay using Cell Titer 96AQUEOUS One Solution Reagent (PROMEGA, Madison, Wis.), according to the manufacturer's instruction. After a 72-hour treatment, 20 μL of Cell Titer 96AQUEOUS One Solution Reagent were added to each well and incubated for 3 hours at 37° C. 5% CO2, and formazan absorbance was measured at 490 nm.

SUP-B15 cells [3] = assay: Cell cycle analysis by PI flow cytometry, SUP-B15
Experimental: as §1

SUP-B15 cells [4] = assay: Annexin V/propidium iodide apoptosis, SUP-B15; conditions: 48 hour; approximately 10×IC50 (Withaferin A, X001), 4×IC50 (X003)
Experimental: as §1
At no concentrations was the population of cells in necrosis significant.

melanoma cells B16F10 = assay: MTS cell viability assay, B16F10; conditions: Mus musculus; for IC50: B16-F10, Table 1, 72-hour treatment; for IC90: B16-F10, Table 2
Summary of the method: (§4)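 JMAR and MDA1986 head and neck SCC cells and B16F10 melanoma cells grown in DMEM with 10% heat-inactivated FBS at 37 °C, 5% CO2, seeded at 1-2×10^4 cells/mL. Viability measured by MTS after 72-hour compound treatment, 3-hour reagent incubation, formazan absorbance at 490 nm.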

[5] = test system: human carcinoid cells NCI-H727; assay: MTS cell viability assay, NCI-H727; conditions: Table 1, NCI-H727, 72-hour treatment, read-out: IC50
Experimental: as §2, §3

HS766T = assay: Pancreatic cancer cell viability, HS766T; conditions: read-out: IC50
Experimental: (§5) The activity of the withanolides of this invention were tested in pancreatic cancer cells. […] Moreover, IC50 values were determined for these compounds (Table 14).

SUP-B15 Ph+ALL cells = assay: Combination with imatinib, MTS viability, SUP-B15; conditions: 16 combinations
Experimental: as §1

MRC-5 = assay: MTS cell viability assay, MRC-5; conditions: Homo sapiens, MRC5, Table 1, 72-hour treatment
[6] = test system: squamous cell carcinoma of head and neck cells JMAR; assay: MTS cell viability assay, JMAR; conditions: for IC50: Table 1, 72-hour treatment; for IC90: Table 2
Summary of the method: as §4

[7] = test system: squamous cell carcinoma of head and neck cells MDA1986; assay: MTS cell viability assay, MDA1986; conditions: Table 1, 72-hour treatment
Summary of the method: as §4

Mia PaCa-2 = assay: Pancreatic cancer cell viability, Mia PaCa-2; conditions: Homo sapiens, MIA PaCa2, read-out: IC50
Experimental: as §5

normal MRC-5 fibroblasts = assay: MTS assay, normal MRC-5 fibroblasts (Example 7); conditions: Homo sapiens, MRC5
Experimental: as §1

UMSCC-2 HNSCC cells = assay: Annexin V/PI staining and flow cytometry, UMSCC-2
Experimental: In similar analysis with X003, 50% of UMSCC-2 HNSCC cells underwent apoptosis (early and late) at 1 μM, while 90% of cells underwent apoptosis at 3 μM. Apoptosis with 1 μM X003 was confirmed with PARP cleavage and caspase 3 activation in NCI-H727 cells.

SUP-B15 cells [8] = assay: Trypan blue exclusion assay, SUP-B15; conditions: 5×, 2×, 1×, 0.5×IC50
Experimental: Cell proliferation was analyzed using MTS assay and Trypan Blue exclusion. Annexin V-FITC/Propidium Iodide flow cytometry was used to analyze the induction of apoptosis in SUP-B15 cells after treatment with anolides. Cell cycle analysis was performed using propidium iodide flow cytometry. Modulation of BCR-ABL and downstream effector proteins was determined by western blot analysis. […] between withanolides and TKIs was evaluated using MTS viability to calculate combination indices. Apoptotic synergy was evaluated using Annexin V/PI.

ER+ MCF-7 cells = assay: Cell cycle analysis, MCF-7; conditions: 1-2 μM; 24-hour treatment
[9] = test system: DRO81-1 medullary thyroid cancer cells; assay: PARP cleavage, DRO81-1
MDA-MB-231 cells [10] = assay: Annexin V-FITC/Propidium Iodide apoptosis, MDA-MB-231
Source text: Therefore, this cell line was not very sensitive to X001 in this assay.

MDA-MB-468 = assay: MTS assay, MDA-MB-468
Experimental: Cell proliferation was analyzed using MTS assay.

MDA-MB-231 cells [11] = assay: Cell cycle analysis, MDA-MB-231; conditions: 4 and 8 μM; 24-hour treatment
[12] = Table 3, treated for 72 hours, NA = no activity

CC(=O)OCC1=C(C)C[C@H]([C@@H](C)C2CC[C@H]3[C@@H]4C[C@H]5O[C@]56[C@@H](OC(C)=O)C=CC(=O)[C@]6(COC(C)=O)[C@H]4CC[C@]23C)OC1=O (stereo partly shown) [Compound X003, 4,19,27-triacetyl X001]
IC50 ([1]; Table 1, 72-hour treatment): 540 nM | IC50 [1, 12]: 221 nM | IC90 [1]: 360 nM | IC50 (SUP-B15 Ph+ ALL cells): 48 nM | Fold Difference (SUP-B15 Ph+ ALL cells; MRC-5 vs SUP-B15 IC50): 31X | IC50 [2]: 340 nM | Cell Cycle (%) G0/G1 (SUP-B15 cells [3]; 15 nM): 57.4% | Cell Cycle (%) G2/M (SUP-B15 cells [3]; 15 nM): 20.7% | Cell Cycle (%) S (SUP-B15 cells [3]; 15 nM): 21.9% | Cell Cycle (%) G0/G1 (SUP-B15 cells [3]; 30 nM): 66.4% | Cell Cycle (%) G2/M (SUP-B15 cells [3]; 30 nM): 24% | Cell Cycle (%) S (SUP-B15 cells [3]; 30 nM): 9.5% | Cell Cycle (%) G0/G1 (SUP-B15 cells [3]; 60 nM): 62.5% | Cell Cycle (%) G2/M (SUP-B15 cells [3]; 60 nM): 22.2% | Cell Cycle (%) S (SUP-B15 cells [3]; 60 nM): 15.3% | Cell Cycle (%) G0/G1 (SUP-B15 cells [3]; 120 nM): 52.6% | Cell Cycle (%) G2/M (SUP-B15 cells [3]; 120 nM): 30% | Cell Cycle (%) S (SUP-B15 cells [3]; 120 nM): 17.4% | induction of apoptosis (SUP-B15 cells [4]): almost all cells were in either late or early apoptosis | IC50 (melanoma cells B16F10): 67 nM | IC90 (melanoma cells B16F10): 330 nM | IC50 [5]: 320 nM | IC50 (HS766T): 400 nM | combination index (CI) with imatinib (SUP-B15 Ph+ALL cells; 0.25×-1×IC50 of each drug): 0.136 | synergy with imatinib (SUP-B15 Ph+ALL cells): showed synergy at all concentrations tested | IC50 (MRC-5): 580 nM | IC50 [6]: 160 nM | IC90 [6]: 1300 nM | IC50 [7]: 910 nM | IC50 (Mia PaCa-2): 350 nM | IC50 (normal MRC-5 fibroblasts): 1500 nM | cells undergoing apoptosis (early and late) (UMSCC-2 HNSCC cells; 1 μM, UMSCC-2): 50% | cells undergoing apoptosis (UMSCC-2 HNSCC cells; 3 μM, UMSCC-2): 90% | cell death at 24 hours, trypan blue exclusion (SUP-B15 cells [8]): significant cell death at 24 hours at IC50 values

CC1=C(CO)C(=O)O[C@@H]([C@@H](C)C2CC[C@H]3[C@@H]4C[C@H]5O[C@]56[C@@H](O)C=CC(=O)[C@]6(CO)[C@H]4CC[C@]23C)C1 (stereo partly shown) [Compound X001]
IC50 ([1]; Table 1, 72-hour treatment): 5060 nM | IC50 [1, 12]: 4710 nM | IC90 [1]: 2140 nM | IC50 (SUP-B15 Ph+ ALL cells): 350 nM | IC50 [2]: 2290 nM | cell cycle effect (ER+ MCF-7 cells): G2/M cell cycle arrest | Cell Cycle (%) G0/G1 (SUP-B15 cells [3]; 200 nM, 48 hour treatment): 53.1% | Cell Cycle (%) G2/M (SUP-B15 cells [3]; 200 nM, 48 hour treatment): 26.4% | Cell Cycle (%) S (SUP-B15 cells [3]; 200 nM, 48 hour treatment): 19.5% | Cell Cycle (%) G0/G1 (SUP-B15 cells [3]; 400 nM, 48 hour treatment): 54.6% | Cell Cycle (%) G2/M (SUP-B15 cells [3]; 400 nM, 48 hour treatment): 27.1% | Cell Cycle (%) S (SUP-B15 cells [3]; 400 nM, 48 hour treatment): 18.3% | Cell Cycle (%) G0/G1 (SUP-B15 cells [3]; 800 nM, 48 hour treatment): 47.5% | Cell Cycle (%) G2/M (SUP-B15 cells [3]; 800 nM, 48 hour treatment): 42.2% | Cell Cycle (%) S (SUP-B15 cells [3]; 800 nM, 48 hour treatment): 10.3% | Cell Cycle (%) G0/G1 (SUP-B15 cells [3]; 1600 nM, 48 hour treatment): 39.9% | Cell Cycle (%) G2/M (SUP-B15 cells [3]; 1600 nM, 48 hour treatment): 44.5% | Cell Cycle (%) S (SUP-B15 cells [3]; 1600 nM, 48 hour treatment): 15.7% | Cell Cycle (%) G0/G1 (SUP-B15 cells [3]; 3200 nM, 48 hour treatment): 49.9% | Cell Cycle (%) G2/M (SUP-B15 cells [3]; 3200 nM, 48 hour treatment): 31.5% | Cell Cycle (%) S (SUP-B15 cells [3]; 3200 nM, 48 hour treatment): 18.6% | cleavage of PARP starting at (concentration) [9]: 500 nM | concentration needed to induce apoptosis (MDA-MB-231 cells [10]): at least 4 μM | induction of apoptosis (SUP-B15 cells [4]): almost all cells were in either late or early apoptosis | Log ECF (MDA-MB-468): 0.32 | IC50 (melanoma cells B16F10): 920 nM | IC90 (melanoma cells B16F10): 2640 nM | IC50 [5]: 1680 nM | IC50 (HS766T): 1300 nM | synergy with imatinib (SUP-B15 Ph+ALL cells): showed synergy at all concentrations tested | IC50 (MRC-5): 12700 nM | IC50 [6]: 5320 nM | IC90 [6]: 4900 nM | IC50 [7]: 3340 nM | IC50 (Mia PaCa-2): 800 nM | cell cycle effect (MDA-MB-231 cells [11]): G2/M arrest | IC50 (normal MRC-5 fibroblasts): 8200 nM | cells undergoing apoptosis (early and late) (UMSCC-2 HNSCC cells; 5 μM, 24-hour exposure, HNSCC cells): 18% | cell death at 24 hours, trypan blue exclusion (SUP-B15 cells [8]): caused death at 24 hours with 2× and 5×IC50 values

From patent US8598339B2, “Withanolide isolated from Physalis longifolia and analogs and methods of use thereof” (University of Kansas, priority 2011, dated 2013)
